Read-outs that look alike come from different tables or passages of the source.

Test [1] deals with Plasmodium berghei (Pb-Luc) exoerythrocytic-stage parasites. The following applies: for IC50: read-out: PbLuc_IC50.
The next test deals with HepG2-A16-CD81EGFP cells. The following applies: for IC50: read-out: Tox_IC50, HepG2 cytotoxicity.
Setting [2] is: 2nd round, maximal inhibition in dose series.

With `COc1cccc(NC(=O)N[C@@H]2CC[C@H](CC(=O)N3CCN(C)CC3)O[C@@H]2CO)c1` [BRD-K48690594-001-01-7], the “normalised signal at concentration 0.000508053 (first series)” value in test [1] (concentration 0.000508053, first series) turned out to be 0.9068. The “normalised signal at concentration 0.000508053 (second series)” value in test [1] (concentration 0.000508053, second series) amounted to 0.9275. In addition, the “normalised signal at concentration 0.00152416 (first series)” value in test [1] (concentration 0.00152416, first series) turned out to be 1.012. Further, the “normalised signal at concentration 0.00152416 (second series)” value in test [1] (concentration 0.00152416, second series) is on record as 1.043. In addition, the “normalised signal at concentration 0.00457247 (first series)” value in test [1] (concentration 0.00457247, first series) amounted to 1.046. In addition, the “normalised signal at concentration 0.00457247 (second series)” value in test [1] (concentration 0.00457247, second series) is on record as 0.8968. Moreover, the “normalised signal at concentration 0.0137174 (first series)” value in test [1] (concentration 0.0137174, first series) was found to be 1.108. Besides, the “normalised signal at concentration 0.0137174 (second series)” value in test [1] (concentration 0.0137174, second series) amounted to 0.8364. In addition, in test [1] (concentration 0.0411523, first series), the “normalised signal at concentration 0.0411523 (first series)” value turned out to be 0.955. Moreover, the “normalised signal at concentration 0.0411523 (second series)” value in test [1] (concentration 0.0411523, second series) is recorded as 1.013. For the same molecule, in test [1] (concentration 0.123457, first series), the “normalised signal at concentration 0.123457 (first series)” value is 0.854. The “normalised signal at concentration 0.123457 (second series)” value in test [1] (concentration 0.123457, second series) is reported as 0.8546. Moreover, the “normalised signal at concentration 0.37037 (first series)” value in test [1] (concentration 0.37037, first series) is given as 1.036. For the same molecule, the “normalised signal at concentration 0.37037 (second series)” value in test [1] (concentration 0.37037, second series) is 0.9102. The “normalised signal at concentration 1.11111 (first series)” value in test [1] (concentration 1.11111, first series) amounted to 1.0718. Also, the “normalised signal at concentration 1.11111 (second series)” value in test [1] (concentration 1.11111, second series) is 0.9366. Further, the “normalised signal at concentration 3.33333 (first series)” value in test [1] (concentration 3.33333, first series) is 0.8922. Besides, the “normalised signal at concentration 3.33333 (second series)” value in test [1] (concentration 3.33333, second series) is 0.9328. For the same molecule, the “normalised signal at concentration 10 (first series)” value in test [1] (concentration 10, first series of dose columns) worked out at 0.9136. Besides, in test [1] (concentration 10, second series of dose columns), the “normalised signal at concentration 10 (second series)” value is given as 0.9502. Besides, the IC50 in test [1] (sheet "2nd round", Broad compounds, dose response top concentration 10) was greater than 10 µM; in the test on HepG2-A16-CD81EGFP cells (sheet "2nd round"), greater than 10 µM. Moreover, the “PbLuc_max_inhibition (%)” value in test [1] (sheet "2nd round") is 16%. Also, the “Tox_max_inhibition (%)” value in the test with HepG2-A16-CD81EGFP cells (sheet "2nd round") is listed as 14%.

For the molecule `N#C[C@@H]1[C@H](c2ccccc2C2=CCCC2)[C@H](CO)N1C(=O)C1CCOCC1` [BRD-K53180201-001-01-6], in test [1] (setting [2]), the “PbLuc_max_inhibition (%)” value came to 21%. Further, in test [1] (concentration 0.000508053, first replicate series, fraction of control), the “normalized signal at 0.000508053 (first series)” value is listed as 1.0312. Also, the “normalized signal at 0.000508053 (second series)” value in test [1] (concentration 0.000508053, second replicate series, fraction of control) was 0.7931. For the same molecule, the “normalized signal at 0.00152416 (first series)” value in test [1] (concentration 0.00152416, first replicate series, fraction of control) amounted to 1.021. Besides, the “normalized signal at 0.00152416 (second series)” value in test [1] (concentration 0.00152416, second replicate series, fraction of control) is 0.9501. Moreover, the “normalized signal at 0.00457247 (first series)” value in test [1] (concentration 0.00457247, first replicate series, fraction of control) was 0.8781. Besides, in test [1] (concentration 0.00457247, second replicate series, fraction of control), the “normalized signal at 0.00457247 (second series)” value is 0.9105. Moreover, the “normalized signal at 0.0137174 (first series)” value in test [1] (concentration 0.0137174, first replicate series, fraction of control) was 0.9372. Also, the “normalized signal at 0.0137174 (second series)” value in test [1] (concentration 0.0137174, second replicate series, fraction of control) worked out at 0.8749. Further, the “normalized signal at 0.0411523 (first series)” value in test [1] (concentration 0.0411523, first replicate series, fraction of control) worked out at 0.9703. The “normalized signal at 0.0411523 (second series)” value in test [1] (concentration 0.0411523, second replicate series, fraction of control) is on record as 1.2503. Moreover, the “normalized signal at 0.123457 (first series)” value in test [1] (concentration 0.123457, first replicate series, fraction of control) is given as 0.9995. In addition, the “normalized signal at 0.123457 (second series)” value in test [1] (concentration 0.123457, second replicate series, fraction of control) is 1.034. In addition, the “normalized signal at 0.37037 (first series)” value in test [1] (concentration 0.37037, first replicate series, fraction of control) was 0.9827. In addition, in test [1] (concentration 0.37037, second replicate series, fraction of control), the “normalized signal at 0.37037 (second series)” value worked out at 0.991. Further, the “normalized signal at 1.11111 (first series)” value in test [1] (concentration 1.11111, first replicate series, fraction of control) is on record as 1.008. Further, the “normalized signal at 1.11111 (second series)” value in test [1] (concentration 1.11111, second replicate series, fraction of control) came to 0.8686. For the same molecule, the “normalized signal at 3.33333 (first series)” value in test [1] (concentration 3.33333, first replicate series, fraction of control) is given as 0.9463. The “normalized signal at 3.33333 (second series)” value in test [1] (concentration 3.33333, second replicate series, fraction of control) was found to be 0.9769. Moreover, the “normalized signal at 10 (first series)” value in test [1] (concentration 10, first replicate series, fraction of control) is listed as 1.181. Moreover, the “normalized signal at 10 (second series)” value in test [1] (concentration 10, second replicate series, fraction of control) is 1.122. Besides, the IC50 was greater than 10 µM in test [1] (2nd round, Broad DOS compounds, unit not printed (dose series head 10 to 0.000508053)) and greater than 10 µM in the test on HepG2-A16-CD81EGFP cells (2nd round, unit inferred). Further, the “Tox_max_inhibition (%)” value in the test on HepG2-A16-CD81EGFP cells (setting [2]) was 7%.

Values taken from PMC4890880 (ACS infectious diseases, 2016).
